In PubChem BioAssay (NCI):
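Where inhibition never reached the appropriate level, the endpoint shown equals the highest concentration tested. Otherwise, values were interpolated linearly from a five-concentration, 48-hour dose response in 96-well plates. GI50: concentration for 50% inhibition of growth. At the TGI there is no net growth.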

Columns and labels:
Assay in all cases: DTP human tumour cell line panel, 48 h
A549 NSCLC = test system: A549 NSCLC
IGROV1 ovarian = test system: IGROV1 ovarian
NCI/ADR-RES ovarian = test system: NCI/ADR-RES ovarian
MALME-3M melanoma = test system: MALME-3M melanoma
MCF7 breast = test system: MCF7 breast
UACC-257 melanoma = test system: UACC-257 melanoma
HCT-15 colon = test system: HCT-15 colon
UO-31 renal = test system: UO-31 renal
SNB-75 CNS = test system: SNB-75 CNS
ACHN renal = test system: ACHN renal
SF-268 CNS = test system: SF-268 CNS
RPMI-8226 leukemia = test system: RPMI-8226 leukemia
MDA-MB-435 = test system: MDA-MB-435
SR leukemia = test system: SR leukemia
SF-539 CNS = test system: SF-539 CNS
SN12C renal = test system: SN12C renal
MOLT-4 leukemia = test system: MOLT-4 leukemia
OVCAR-3 ovarian = test system: OVCAR-3 ovarian
HL-60(TB) leukemia = test system: HL-60(TB) leukemia
NCI-H460 lung = test system: NCI-H460 lung
HOP-92 NSCLC = test system: HOP-92 NSCLC
TK-10 renal = test system: TK-10 renal
BT-549 breast = test system: BT-549 breast
HCT-116 colon = test system: HCT-116 colon
SK-MEL-2 melanoma = test system: SK-MEL-2 melanoma
NCI-H226 lung = test system: NCI-H226 lung
HOP-62 NSCLC = test system: HOP-62 NSCLC
SK-MEL-28 melanoma = test system: SK-MEL-28 melanoma
MDA-MB-231 breast = test system: MDA-MB-231 breast
SW-620 colon = test system: SW-620 colon
SNB-19 CNS = test system: SNB-19 CNS
786-0 renal = test system: 786-0 renal
SK-MEL-5 melanoma = test system: SK-MEL-5 melanoma
K-562 leukemia = test system: K-562 leukemia
OVCAR-8 ovarian = test system: OVCAR-8 ovarian
DU-145 prostate = test system: DU-145 prostate
COLO 205 colon = test system: COLO 205 colon
PC-3 prostate = test system: PC-3 prostate
CAKI-1 renal = test system: CAKI-1 renal
OVCAR-4 ovarian = test system: OVCAR-4 ovarian
OVCAR-5 ovarian = test system: OVCAR-5 ovarian
EKVX NSCLC = test system: EKVX NSCLC
NCI-H23 lung = test system: NCI-H23 lung
HS 578T breast = test system: HS 578T breast
LOX IMVI melanoma = test system: LOX IMVI melanoma
UACC-62 melanoma = test system: UACC-62 melanoma
CCRF-CEM leukemia = test system: CCRF-CEM leukemia
U251 CNS = test system: U251 CNS
RXF 393 renal = test system: RXF 393 renal
HCC-2998 colon = test system: HCC-2998 colon
HT29 colon = test system: HT29 colon
SK-OV-3 ovarian = test system: SK-OV-3 ovarian
KM12 colon = test system: KM12 colon
M14 melanoma = test system: M14 melanoma
NCI-H522 lung = test system: NCI-H522 lung
SF-295 CNS = test system: SF-295 CNS
A498 renal = test system: A498 renal

`CN1c2cccc[c]2[Sn]([CH3])([CH3])[c]2ccccc21` gave a GI50 (A549 NSCLC) of under 13.2 nM, a TGI (A549 NSCLC) of 93.2 nM and a GI50 (IGROV1 ovarian) of under 16.6 nM. For the same compound, the TGI (IGROV1 ovarian) was 140 nM, the GI50 (NCI/ADR-RES ovarian) was 13.2 nM and the TGI (NCI/ADR-RES ovarian) was 49.1 nM. It also gave a GI50 (MALME-3M melanoma) of under 23.8 nM, a TGI (MALME-3M melanoma) of 226 nM and a GI50 (MCF7 breast) of under 10 nM. It also gave a GI50 (UACC-257 melanoma) of under 10 nM, a TGI (UACC-257 melanoma) of under 21.7 nM and a GI50 (HCT-15 colon) of under 12.5 nM. For the same compound, the TGI (HCT-15 colon) was 116 nM, the GI50 (UO-31 renal) was 37.4 nM and the TGI (UO-31 renal) was 182 nM. The GI50 (SNB-75 CNS) was under 14.2 nM, the TGI (SNB-75 CNS) was 192 nM and the GI50 (ACHN renal) was under 15.5 nM. For the same compound, the TGI (ACHN renal) was 170 nM, the GI50 (SF-268 CNS) was under 17.8 nM and the TGI (SF-268 CNS) was 165 nM. The GI50 (RPMI-8226 leukemia) was under 11.9 nM, the TGI (RPMI-8226 leukemia) was 31.6 nM and the GI50 (MDA-MB-435) was under 10 nM. The TGI (MDA-MB-435) was 29.1 nM, the GI50 (SR leukemia) was under 10 nM and the TGI (SR leukemia) was 38.7 nM. For the same compound, the GI50 (SF-539 CNS) was under 11 nM, the TGI (SF-539 CNS) was 47.3 nM and the GI50 (SN12C renal) was under 13.8 nM. The TGI (SN12C renal) was 116 nM, the GI50 (MOLT-4 leukemia) was 10.1 nM and the TGI (MOLT-4 leukemia) was 936 nM. The GI50 (OVCAR-3 ovarian) was under 11.5 nM, the TGI (OVCAR-3 ovarian) was under 22.4 nM and the GI50 (HL-60(TB) leukemia) was under 10 nM. It also gave a TGI (HL-60(TB) leukemia) of 56.9 nM, a GI50 (NCI-H460 lung) of under 10 nM and a TGI (NCI-H460 lung) of 12.6 nM. The GI50 (HOP-92 NSCLC) was 10 nM, the TGI (HOP-92 NSCLC) was 104 nM and the GI50 (TK-10 renal) was under 19.2 nM. The TGI (TK-10 renal) was 135 nM, the GI50 (BT-549 breast) was under 10 nM and the TGI (BT-549 breast) was 165 nM. The GI50 (HCT-116 colon) was under 10.7 nM, the TGI (HCT-116 colon) was under 16.1 nM and the GI50 (SK-MEL-2 melanoma) was under 20.9 nM. For the same compound, the TGI (SK-MEL-2 melanoma) was 180 nM, the GI50 (NCI-H226 lung) was under 13.8 nM and the TGI (NCI-H226 lung) was 132 nM. The GI50 (HOP-62 NSCLC) was under 13.7 nM, the TGI (HOP-62 NSCLC) was 71.4 nM and the GI50 (SK-MEL-28 melanoma) was 113 nM. The TGI (SK-MEL-28 melanoma) was 303 nM, the GI50 (MDA-MB-231 breast) was under 13.2 nM and the TGI (MDA-MB-231 breast) was 165 nM. For the same compound, the GI50 (SW-620 colon) was 19 nM, the TGI (SW-620 colon) was 67.5 nM and the GI50 (SNB-19 CNS) was 21.2 nM. For the same compound, the TGI (SNB-19 CNS) was 215 nM, the GI50 (786-0 renal) was under 14 nM and the TGI (786-0 renal) was 124 nM. For the same compound, the GI50 (SK-MEL-5 melanoma) was under 10 nM, the TGI (SK-MEL-5 melanoma) was 23 nM and the GI50 (K-562 leukemia) was under 10 nM. It also gave a TGI (K-562 leukemia) of 2130 nM, a GI50 (OVCAR-8 ovarian) of under 13.4 nM and a TGI (OVCAR-8 ovarian) of under 23 nM. It also gave a GI50 (DU-145 prostate) of under 13.1 nM, a TGI (DU-145 prostate) of 98.8 nM and a GI50 (COLO 205 colon) of 15 nM. The TGI (COLO 205 colon) was 57.2 nM, the GI50 (PC-3 prostate) was 19.1 nM and the TGI (PC-3 prostate) was 154 nM. For the same compound, the GI50 (CAKI-1 renal) was 10 nM, the TGI (CAKI-1 renal) was under 35.6 nM and the GI50 (OVCAR-4 ovarian) was under 12.1 nM. The TGI (OVCAR-4 ovarian) was 232 nM, the GI50 (OVCAR-5 ovarian) was under 11.5 nM and the TGI (OVCAR-5 ovarian) was 264 nM. The GI50 (EKVX NSCLC) was under 10 nM, the TGI (EKVX NSCLC) was under 24.9 nM and the GI50 (NCI-H23 lung) was under 10 nM. It also gave a TGI (NCI-H23 lung) of 67.7 nM, a GI50 (HS 578T breast) of 16.6 nM and a TGI (HS 578T breast) of 683 nM. For the same compound, the GI50 (LOX IMVI melanoma) was 10.7 nM, the TGI (LOX IMVI melanoma) was 30.4 nM and the GI50 (UACC-62 melanoma) was under 14.7 nM. For the same compound, the TGI (UACC-62 melanoma) was 113 nM, the GI50 (CCRF-CEM leukemia) was under 10 nM and the TGI (CCRF-CEM leukemia) was 119 nM. The GI50 (U251 CNS) was under 16 nM, the TGI (U251 CNS) was 134 nM and the GI50 (RXF 393 renal) was 27.9 nM. For the same compound, the TGI (RXF 393 renal) was 202 nM, the GI50 (HCC-2998 colon) was under 10 nM and the TGI (HCC-2998 colon) was 24.7 nM. For the same compound, the GI50 (HT29 colon) was under 12 nM, the TGI (HT29 colon) was under 24.9 nM and the GI50 (SK-OV-3 ovarian) was under 14.4 nM. It also gave a TGI (SK-OV-3 ovarian) of under 32.6 nM, a GI50 (KM12 colon) of under 10 nM and a TGI (KM12 colon) of under 16.9 nM. For the same compound, the GI50 (M14 melanoma) was under 14.8 nM, the TGI (M14 melanoma) was 30.5 nM and the GI50 (NCI-H522 lung) was 10.2 nM. For the same compound, the TGI (NCI-H522 lung) was 26.2 nM, the GI50 (SF-295 CNS) was under 16.5 nM and the TGI (SF-295 CNS) was under 34 nM. The GI50 (A498 renal) was 101 nM and the TGI (A498 renal) was 255 nM.
